This note sets out measurements from patent publication US20240368164A1, “PURINE NUCLEOSIDES, THEIR INTERMEDIATES, AND METHODS OF PREPARATION THEREOF” (Astrocyle Pharmaceuticals, Inc., priority 2021, published 2024).

A short description of data set [1]: Nonspecific brain tissue binding (free fraction). Format: in vitro ADME, mouse. An excerpt: Example 3 of U.S. Pat. No. 9,789,131, which is incorporated herein by reference, describes assays for determining the plasma and brain free fraction of certain compounds such as I-1. Compounds described herein may be evaluated using such assays or similar variants thereof.

Data set [2] has as its system photothrombosis-induced stroke in mice. Briefly: Mouse photothrombotic stroke model. Format: in vivo. On the procedure: Photothrombosis-induced Stroke: Photothrombosis is performed as described in Zheng et al 2010 (PloS One 5 (12): e14401). In brief, Rose Bengal is a fluorescent dye that when injected into the vasculature and excited, generates singlet oxygen that damages the endothelial wall and induces a local thrombosis (clot). Using this technique, mice are given a 0.1 mL tail-vein injection of sterilized Rose Bengal (RB, Sigma, U.S.A.) in artificial cerebral spinal fluid (aCSF). The RB concentration is 20 mg/mL. A cortical region is centered in the imaging field and illuminated with a green laser (543 nm, 5 mW) using a 0.8-NA 40× water-immersion objective (Nikon, Tokyo). The clot formation is monitored in real time until the targeted vessel or downstream capillaries are firmly occluded. Stable clots are subsequently identified by a non-fluorescent vessel segmentation ending with highly fluorescent regions. […] Treatments, at doses such as 0.5 μmol/kg are introduced via intraperitoneal injections (i.p.). For experiments with A3 receptor antagonist MRS1523, mice are administered intraperitoneal injections (2 mg/kg) at the 0 and 2 hour timepoints to ensure receptor antagonism throughout the course of the study.
Animals and Photothrombosis-induced Stroke: Stroke is performed as described in Zheng et al 2010 (PloS One 5 (12): e14401). Female C57Bl/6 mice (4-6 months) are used in this study. From the methods of this manuscript: Mice are anesthetized at 3% isoflurane with 100% oxygen and subsequently maintained at 1% isoflurane through a nosecone. Depth of anesthesia is monitored and regulated according to vital signs, pinch withdrawal and eye blinks. Body temperature is maintained at 37° C. by a feedback-controlled heating pad (Gaymar T/Pump). Vital signs including oxygen saturation, respiratory rate, and heart rate are continuously monitored by using the MouseOx system (STARR Life Sciences). […]
Post photothrombotic infarction evaluation. The size of cerebral infarcts is evaluated using 2,3,5-Triphenyltetrazolium chloride (TTC) staining as described in Zheng et al 2010 (PloS One 5 (12): e14401). […]

Data set [3] addresses T1, A3 receptor in the mouse (Mus musculus, UniProt Q61618).
T1 sequence (Q61618 1-319): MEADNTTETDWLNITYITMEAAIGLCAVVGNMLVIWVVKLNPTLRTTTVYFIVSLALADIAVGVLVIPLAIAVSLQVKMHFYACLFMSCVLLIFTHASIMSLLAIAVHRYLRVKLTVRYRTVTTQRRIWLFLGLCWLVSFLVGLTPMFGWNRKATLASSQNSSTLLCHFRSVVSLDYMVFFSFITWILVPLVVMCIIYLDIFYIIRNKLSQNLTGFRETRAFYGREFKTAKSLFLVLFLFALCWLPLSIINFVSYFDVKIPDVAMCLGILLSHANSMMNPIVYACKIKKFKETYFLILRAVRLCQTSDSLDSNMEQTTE
Briefly: Affinity at the mouse A3 receptor. Format: binding. As for the experimental part: Similar competition binding assays may be conducted using HEK293 cell membranes expressing mARs using [^125I]I-AB-MECA to label A1 or A3ARs and [3H]CGS21680 to label A2AARs. IC50 values were converted to Ki values using known methods. Nonspecific binding was determined in the presence of 100 μM NECA.

On to `CSc1nc(N)c2ncn([C@H]3[C@H](O)[C@H](O)[C@]4(CO)C[C@H]34)c2n1` [Compound I-1, (1R,2R,3S,4R,5S)-4-(6-Amino-2-(methylthio)-9H-purin-9-yl)-1-(hydroxymethyl)bicyclo[3.1.0]hexane-2,3-diol], for which the “free (unbound) fraction in brain” value in data set [1] (brain tissue) worked out at 0.13. Moreover, in data set [1] (mouse models, from unbound fractions), the “fraction available to interact with the A3 receptor, relative to Cl-IB-IMECA” value is “at least 1000 fold”. For the same molecule, the “efficacy of I-1 in presence of A3 antagonist MRS1523” value in data set [2] (mouse photothrombotic stroke and TBI models, with MRS1523) is “blocked”. Also, the “efficacy in mouse photothrombotic stroke model” value in data set [2] (mouse, stroke) is listed as “significant efficacy”. Moreover, in data set [3] (I-1 versus Cl-IB-MECA), the “difference in affinity of I-1 and Cl-IB-MECA at mouse A3 receptor” value is recorded as “approximately 25,000 fold”. The Ki in data set [3] (mouse A3 receptor, read-out: affinity as agonist of the A3 receptor in the mouse) turned out to be 4.9 µM.
